Results on 15 compounds are retold here after patent US20190374563A1, “TREATMENT OF KLEBSIELLA PNEUMONIAE INFECTIONS WITH ANTIBACTERIAL AMINOGLYCOSIDE COMPOUNDS” (Achaogen, Inc., priority 2009, published 2019).

In test [1] the test system is K. pneumoniae producing KPC (n = 25). Briefly: MIC by microdilution, clinical isolates. The format is cell-based. To be noted: for S (%), susceptible isolates: CLSI criteria, tigecycline US FDA criteria. The method, then:
(§1) The in vitro activity of representative antibacterial aminoglycoside compounds against a collection of 102 K. pneumoniae clinical isolates collected from January 2006 to October 2007 at the University of Pittsburgh Medical Center, and three Cleveland institutions including University Hospitals Case Medical Center, the Cleveland Clinic, and the Louis Stokes Department of Veterans Affairs Medical Center was analyzed. The 102 K. pneumoniae isolates were selected based on a multidrug-resistant (MDR) phenotype (i.e., resistance to >3 antibiotic classes). Twenty-five isolates were KPC carbapenemase producing (KPC-Kp), and were part of a previous study where the β-lactamase background and clonality were characterized (see Endimiani, A., A. M. Hujer, F. Perez, C. R. Bethel, K. M. Hujer, J. Kroeger, M. Oethinger, D. L. Paterson, M. D. Adams, M. R. Jacobs, D. J. Diekema, G. S. Hall, S. G. Jenkins, L. B. Rice, F. C. Tenover, and R. A. Bonomo. 2009. Characterization of blaKPC-containing Klebsiella pneumoniae isolates detected in different institutions in the Eastern USA. J Antimicrob Chemother 63:427-37).
(§2) Minimum inhibitory concentrations (MICs) were performed by microdilution method using cation-adjusted Mueller-Hinton broth, according to the Clinical and Laboratory Standards Institute (CLSI) criteria (see CLSI. 2006. Methods for dilution antimicrobial susceptibility tests for bacteria that grow aerobically; approved standard-Seventh edition. Clinical and Laboratory Standard Institute, Wayne, Pa. CLSI document M7-A7). These MIC assays were conducted following the same protocol as set forth in Example 110. […] The following ATCC control strains were used: Escherichia coli ATCC 25922, Pseudomonas aeruginosa ATCC 27853, and K. pneumoniae ATCC 700603.

For test [2], the system named is multidrug-resistant (MDR) K. pneumoniae isolates (n = 102). Briefly: MIC by microdilution, clinical isolates. The format is cell-based. Conditions: for S (%), susceptible isolates: CLSI criteria, tigecycline US FDA criteria. The method, then: as §1, §2
The subject of a further test is E. coli ATCC 25922. Briefly: murine septicemia model of infection. It is filed as in vivo. Conditions: mice, single SC or IV dose 1 hour after IP challenge, mortality for 7 days; ED50 values are mg/kg. The protocol: (§3) Two models were run on each compound, using E. coli and P. aeruginosa QC bacterial strains. Both studies employed the same design. […] At 1 hour after bacterial challenge, the mice received a single SC or IV dose of vehicle or test substance to assess in vivo anti-infective activity. Mortality was recorded once daily for 7 days after bacterial inoculation.

Another test concerns P. aeruginosa ATCC 27853. Briefly: murine septicemia model of infection. It is filed as in vivo. Conditions: mice, single SC or IV dose 1 hour after IP challenge, mortality for 7 days; ED50 values are mg/kg. The protocol: as §3
The subject of test [3] is P. aeruginosa ATCC 27853 (APAE001). Briefly: MIC assay, CLSI broth microdilution. It is filed as cell-based. To be noted: Pseudomonas aeruginosa. A digest of the protocol: (§4)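 CLSI M7-A7 broth microdilution in Mueller Hinton Broth using two-fold compound serial dilutions. Inoculum was prepared from the previous day's agar colonies at a final 5×10^5 CFU/mL. Plates were incubated at 35° C for 20 hours in ambient air.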
For orientation: In broth dilution the organism is exposed to a series of concentrations in liquid medium.

Test [4] has as its system E. coli ATCC 25922 (AECO001). In words: MIC assay, CLSI broth microdilution. It is filed as cell-based. Conditions: Escherichia coli. A digest of the protocol:
as §4

Where [5] appears, read: K. pneumoniae producing KPC (n = 25).
The mark [6] stands for this setting: Klebsiella pneumoniae, K. pneumoniae producing KPC (n = 25), read-out: MIC50.
Setting [7] is: Klebsiella pneumoniae, K. pneumoniae producing KPC (n = 25), read-out: MIC90.
The mark [8] stands for this setting: Klebsiella pneumoniae, Total MDR K. pneumoniae isolates (n = 102), read-out: MIC50.
Where [9] appears, read: Klebsiella pneumoniae, Total MDR K. pneumoniae isolates (n = 102), read-out: MIC90.
[10] abbreviates: Total MDR K. pneumoniae isolates (n = 102).
The mark [11] stands for this setting: ATCC27853, read-out: MIC APAE001.
Setting [12] is: ATCC25922, read-out: MIC AECO001.

In brackets after ≈: the same amount, converted by molar mass. Like-named read-outs stand apart in the source and are kept apart here.

Consider `NCC[C@H](O)C(=O)N[C@@H]1C[C@H](N)[C@@H](O[C@H]2O[C@H](CN)[C@@H](O)[C@H](O)[C@H]2O)[C@H](O)[C@H]1O[C@H]1O[C@H](CO)[C@@H](O)[C@H](N)[C@H]1O` [Amikacin, amikacin], for which the “S (%), susceptible isolates” value stood at 48.0% in test [1] (setting [5]); 48% in test [1] (K. pneumoniae producing KPC (n = 25), listed as amikacin); 78.4% in test [2] (setting [10]); 78% in test [2] (Total MDR K. pneumoniae isolates (n = 102), listed as amikacin). Besides, the MIC50 in test [1] (setting [6]) was found to be 32 µg/mL (≈ 54.6 µM); in test [2] (setting [8]), 2 µg/mL (≈ 3.42 µM). Further, the MIC90 in test [1] (setting [7]) and in test [2] (setting [9]) was 32 µg/mL (≈ 54.6 µM) each time. The “isolates fully resistant (MICs of 64 μg/ml)” value in test [2] (MDR K. pneumoniae isolates (n = 102)) is reported as “five”. The “ED50/MIC E. Coli” value in the test on E. coli ATCC 25922 was 1.5. For the same compound, in the test with P. aeruginosa ATCC 27853, the “ED50/MIC P. aeruginosa” value came out at 13.
As to `NCC[C@H](O)C(=O)N[C@@H]1C[C@H](N)[C@@H](O[C@H]2O[C@H](CN)CC[C@H]2N)[C@H](O)[C@H]1O[C@H]1O[C@H](CO)[C@@H](O)[C@H](N)[C@H]1O` [Arbekacin, arbekacin], the values for the MIC50 in test [1] (setting [6]) and in test [2] (setting [8]) were 8 µg/mL (≈ 14.5 µM) and 4 µg/mL (≈ 7.24 µM), respectively. Moreover, the MIC90 in test [1] (setting [7]) and in test [2] (setting [9]) was 16 µg/mL (≈ 29 µM) throughout. Moreover, in test [1] (Klebsiella pneumoniae, all KPC-Kp strains, read-out: MICs of all strains), the MIC is below 32 µg/mL.
In the case of `CC(C)(O/N=C(\C(=O)N[C@@H]1C(=O)N2C(C(=O)[O-])=C(C[n+]3ccccc3)CS[C@H]12)c1csc(N)n1)C(=O)O` [Ceftazidime, ceftazidime], the “S (%), susceptible isolates” value is 0.0% in test [1] (setting [5]) and 9.8% in test [2] (setting [10]). Further, the MIC50 in test [1] (setting [6]) and in test [2] (setting [8]) was above 32 µg/mL throughout. Also, the MIC90 in test [1] (setting [7]), in test [2] (setting [9]) and in test [2] (setting [10]) was above 32 µg/mL throughout.
As to `CN[C@@H]1[C@@H](O)[C@@H](O[C@@H]2[C@@H](O)[C@H](O[C@H]3OC(CNCC4CCNCC4)=CC[C@H]3N)[C@@H](N)C[C@H]2NC(=O)[C@@H](O)CN)OC[C@]1(C)O` [Example 15, 6′-(Methyl-piperidin-4-yl)-1-(3-amino-2(S)-hydroxy-propionyl)-sisomicin], the MIC in test [3] (setting [11]) fell in the range of 1 to 16 µg/mL (≈ 1.58 to 25.3 µM). The “ED50/MIC E. Coli” value in the test on E. coli ATCC 25922 is given as below 1. Besides, the “ED50/MIC P. aeruginosa” value with P. aeruginosa ATCC 27853 is 1.
For the compound `CN[C@@H]1[C@@H](O)[C@@H](O[C@@H]2[C@@H](O)[C@H](O[C@H]3OC(CNCCO)=CC[C@H]3N)[C@@H](N)C[C@H]2NC(=O)[C@@H](O)CN)OC[C@]1(C)O` [Example 16, 6′-(2-Hydroxy-ethyl)-1-(3-amino-2(S)-hydroxy-propionyl)-sisomicin], the “ED50/MIC E. Coli” value in the test with E. coli ATCC 25922 came to 1. Moreover, in the test with P. aeruginosa ATCC 27853, the “ED50/MIC P. aeruginosa” value was 3.
`CN[C@@H]1[C@@H](O)[C@@H](O[C@@H]2[C@@H](O)[C@H](O[C@H]3OC(CNCCCN)=CC[C@H]3N)[C@@H](N)C[C@H]2NC(=O)[C@@H](O)CN)OC[C@]1(C)O` [Example 17, 6′-(3-Amino-propyl)-1-(3-amino-2(S)-hydroxy-propionyl)-sisomicin]: the MIC in test [3] (Table 1, APAE001 is ATCC27853, read-out: MIC APAE001) lay within 1 to 16 µg/mL (≈ 1.69 to 27 µM). The “ED50/MIC E. Coli” value in the test on E. coli ATCC 25922 is 1. In addition, the “ED50/MIC P. aeruginosa” value with P. aeruginosa ATCC 27853 came out at 5.
With `CN[C@@H]1[C@@H](O)[C@@H](O[C@@H]2[C@@H](O)[C@H](O[C@H]3OC(CNCC(O)CN)=CC[C@H]3N)[C@@H](N)C[C@H]2NC(=O)[C@@H](O)CN)OC[C@]1(C)O` (stereo partly drawn) [Example 22, 6′-(3-Amino-2-hydroxy-propyl)-1-(3-amino-2(S)-hydroxy-propionyl)-sisomicin], the “ED50/MIC E. Coli” value with E. coli ATCC 25922 is listed as 1. Also, the “ED50/MIC P. aeruginosa” value in the test with P. aeruginosa ATCC 27853 is recorded as 8.
For `CN[C@@H]1[C@@H](O)[C@@H](O[C@@H]2[C@@H](O)[C@H](O[C@H]3OC(CNCCCN)=CC[C@H]3N)[C@@H](N)C[C@H]2NC(=O)C2(O)CNC2)OC[C@]1(C)O` [Example 57] the same measures were 2 and 14.
For `CN[C@@H]1[C@@H](O)[C@@H](O[C@@H]2[C@@H](O)[C@H](O[C@H]3OC(CN)=CC[C@H]3NC3CNC3)[C@@H](N)C[C@H]2NC(=O)[C@@H](O)CCN)OC[C@]1(C)O` [Example 96, 2′-(Azetidin-3-yl)-1-(4-amino-2(S)-hydroxy-butyryl)-sisomicin] the same measures were below 1 and 3.
For `CN[C@@H]1[C@@H](O)[C@@H](O[C@@H]2[C@@H](O)[C@H](O[C@H]3OC(CN)=CC[C@H]3NC(=N)N)[C@@H](N)C[C@H]2NC(=O)[C@@H](O)CCN)OC[C@]1(C)O` [Example 103, 2′-Guanidinium-1-(4-amino-2(S)-hydroxy-butyryl)-sisomicin] the same measures were 2 and 6.
With `CN[C@@H]1[C@@H](O)[C@@H](O[C@@H]2[C@@H](O)[C@H](O[C@H]3OC(CNC[C@H]4C[C@H](N)C4)=CC[C@H]3NC(=N)N)[C@@H](N)C[C@H]2N)OC[C@]1(C)O` [Example 107, 6′-(Methyl-trans-3-amino-cyclobutyl)-2′-guanidinium-sisomicin], the MIC was 1 to 16 µg/mL (≈ 1.75 to 27.9 µM) in test [4] (setting [12]) and below 1 µg/mL in test [3] (setting [11]).
In the same order, the values of `CNCC1=CC[C@@H](NC(=N)N)[C@@H](O[C@H]2[C@H](O)[C@@H](O[C@H]3OC[C@](C)(O)[C@H](NC)[C@H]3O)[C@H](N)C[C@@H]2N)O1` [Example 108, 6′-Methyl-2′-guanidinium-sisomicin] are below 1 µg/mL and 1 to 16 µg/mL (≈ 1.99 to 31.8 µM).
Regarding `C[C@@H](O)[C@H]1C(=O)N2C(C(=O)O)=C(SCCN=CN)C[C@H]12` [Imipenem, imipenem], the MIC in test [4] (ATCC25922) is 0.125 µg/mL (≈ 0.418 µM). The “S (%), susceptible isolates” value is on record as 12.0% in test [1] (setting [5]); 75.5% in test [2] (setting [10]); “approximately 75%” in test [2] (Total MDR K. pneumoniae isolates (n = 102), listed as imipenem). For the same compound, the values for the MIC50 in test [1] (setting [6]) and in test [2] (setting [8]) were 8 µg/mL (≈ 26.7 µM) and 0.5 µg/mL (≈ 1.67 µM), respectively. In addition, the values for the MIC90 in test [1] (setting [7]) and in test [2] (setting [9]) were above 16 µg/mL and 8 µg/mL (≈ 26.7 µM), respectively.
Turning to `CN(C)c1cc(NC(=O)CNC(C)(C)C)c(O)c2c1C[C@H]1C[C@H]3[C@H](N(C)C)C(O)=C(C(N)=O)C(=O)[C@@]3(O)C(O)=C1C2=O` [Tigecycline, tigecycline], the “S (%), susceptible isolates” value in test [1] (setting [5]) is 96.0%; in test [2] (setting [10]), 90.2%; in test [2] (Total MDR K. pneumoniae isolates (n = 102), listed as tigecycline), around 90%. The MIC50 in test [1] (Klebsiella pneumoniae) and in test [2] (Klebsiella pneumoniae) was 1 µg/mL (≈ 1.71 µM) throughout. Moreover, the MIC90 in test [1] (Klebsiella pneumoniae) and in test [2] (Klebsiella pneumoniae) was 2 µg/mL (≈ 3.41 µM) each time.
Consider `NC[C@H]1O[C@H](O[C@H]2[C@H](O)[C@@H](O[C@H]3O[C@H](CO)[C@@H](O)[C@H](N)[C@H]3O)[C@H](N)C[C@@H]2N)[C@H](N)C[C@@H]1O` [Tobramycin, tobramycin], for which the “S (%), susceptible isolates” value in test [1] (setting [5]) is on record as 8.0%; in test [1] (K. pneumoniae producing KPC (n = 25), listed as tobramycin) it was 8%; in test [2] (setting [10]), 10.8%. Also, the MIC50 in test [1] (setting [6]) and in test [2] (setting [8]) was 32 µg/mL (≈ 68.4 µM) throughout. Besides, the MIC90 in test [1] (setting [7]), in test [2] (setting [9]) and in test [2] (setting [10]) was at least 64 µg/mL each time.

A word on the MIC50: it is an inhibitory concentration at the 50% level, which refers to growth in some studies and to a panel of isolates in others. For orientation: MIC90 means an inhibitory concentration at the 90% level, which refers to growth in some studies and to a panel of isolates in others.
